Patent US9237747B2, “Herbicidal compositions comprising 4-amino-3-chloro-5-fluoro-6-(4-chloro-2-fluoro-3-methoxyphenyl) pyridine-2-carboxylic acid or a derivative thereof and insecticides” (priority 2013, dated 2016)
Where two headings read alike, the source gives them in different places.

Assays:
LEFFA = assay: Postemergence foliar-applied weed control, direct-seeded rice (greenhouse); type: in vivo, Leptochloa fascicularis
From the text: (§1) Seeds or nutlets of the desired test plant species were planted in a soil matrix prepared by mixing a loam or sandy loam soil (e.g., 28.6 percent silt, 18.8 percent clay, and 52.6 percent sand, with a pH of about 5.8 and an organic matter content of about 1.8 percent) and calcareous grit in an 80 to 20 ratio. The soil matrix was contained in plastic pots with a volume of 1 quart and a surface area of 83.6 square centimeters (cm^2). When required to ensure good germination and healthy plants, a fungicide treatment and/or other chemical or physical treatment was applied. The plants were grown for 8-22 days in a greenhouse with an approximate 14 hour (h) photoperiod which was maintained at about 29° C. during the day and 26° C. during the night. Nutrients (Peters Excel® 15-5-15 5-Ca 2-Mg and iron chelate) were applied in the irrigation solution as needed and water was added on a regular basis. Supplemental lighting was provided with overhead metal halide 1000-Watt lamps as necessary. The plants were employed for testing when they reached the first through fourth true leaf stage.
(§2) Treatments consisted of the acid or esters of 4-amino-3-chloro-6-(4-chloro-2-fluoro-3-methoxyphenyl)-5-fluoropyridine-2-carboxylic acid (Compound A), each formulated as an SC (suspension concentrate), and various insecticidal components alone and in combination. Forms of compound A were applied on an acid equivalent basis.
(§3) Treatment requirements were calculated based upon the rates being tested, the concentration of active ingredient or acid equivalent in the formulation, and a 12 milliliter (mL) application volume at a rate of 187 liters per hectare (L/ha).
(§4) For treatments comprised of formulated compounds, measured amounts of compounds were placed individually in 25 mL glass vials and diluted in a volume of 1.25% volume per volume (v/v) Agri-Dex® crop oil concentrate to obtain 12× stock solutions. […] Application solutions were prepared by adding an appropriate amount of each stock solution (e.g., 1 mL) and diluted to the appropriate final concentrations with the addition of […] of an aqueous mixture of 1.25% (v/v) crop oil concentrate so that the final spray solutions contained 1.25+/−0.05% (v/v) crop oil concentrate.
(§5) As required, additional water and/or 97:3 v/v acetone/DMSO was added to individual application solutions so that the final acetone and DMSO concentrations of the application solutions being compared were 8.1% and 0.25%, respectively.
(§6) All stock solutions and applications solutions were visually inspected for compound compatibility prior to application. Spray solutions were applied to the plant material with an overhead Mandel track sprayer equipped with 8002E nozzles calibrated to deliver 187 L/ha over an application area of 0.503 square meters (m^2) at a spray height of 18 to 20 inches (46 to 50 cm) above average plant canopy height. Control plants were sprayed in the same manner with the solvent blank.
(§7) The treated plants and control plants were placed in a greenhouse as described above and watered by sub-irrigation to prevent wash-off of the test compounds. After approximately 3 weeks, the condition of the test plants as compared to that of the untreated plants was determined visually and scored on a scale of 0 to 100 percent where 0 corresponds to no injury or growth inhibition and 100 corresponds to complete kill.
(§8) Colby's equation was used to determine the herbicidal effects expected from the mixtures (Colby, S. R. Calculation of the synergistic and antagonistic response of herbicide combinations. Weeds 1967, 15, 20-22.).
(§9) The following equation was used to calculate the expected activity of mixtures containing two active ingredients, A and B: Expected=A+B−(A×B/100)

LEFPA = assay: as above; type: in vivo, Leptochloa panicoides
From the text: as §1, §2, §3, §4, §5, §6, §7, §8, §9

CYPES = type: in vivo, Cyperus esculentus
Experimental: as §1, with “When required to ensure good germination and healthy plants, a fungicide treatment and/or other chemical or physical treatment was applied.” left out
as §2, §4, §5, §6, §7, §8, §9

SCPJU = assay: Postemergence foliar-applied weed control, direct-seeded rice (greenhouse); type: in vivo, Schoenoplectus juncoides; details: 4.38 g ae/ha alone
From the text: as §1, with “Supplemental lighting was provided with overhead metal halide 1000-Watt lamps as necessary. The plants were employed for testing when they reached the first through fourth true leaf stage.” left out
as §3
For treatments comprised of formulated compounds, measured amounts of compounds were placed individually in 25 mL glass vials and diluted in a volume of 1.25% volume per volume (v/v) Agri-Dex® crop oil concentrate to obtain 12× stock solutions. […]

Q: With `COc1c(Cl)ccc(-c2nc(C(=O)OCc3ccccc3)c(Cl)c(N)c2F)c1F` [Compound A Benzyl Ester] as the molecule, how does the “Visual Weed Control (%) - 22 DAA LEFFA Obs” value (LEFFA; 8 g ae/ha alone) read?
A: The value was 23%.

Q: And the “Visual Weed Control (%) - 22 DAA LEFFA Obs” value (LEFFA; 16 g ae/ha alone)?
A: The value was 30%.

Q: What about the “Visual Weed Control (%) - 22 DAA LEFFA Obs” value (LEFFA; 22 DAA, 8 g ae/ha alone) of the same molecule?
A: Its value is 23%.

Q: What about the “Visual Weed Control (%) - 22 DAA LEFFA Obs” value (LEFFA; 22 DAA, 16 g ae/ha alone) of the same molecule?
A: Its value is 30%.

Q: And the “Visual Weed Control (%) - 22 DAA LEFFA Obs” value (LEFFA; 22 DAA, 32 g ae/ha alone)?
A: The value was 45%.

Q: What about the “Visual Weed Control (%) - 22 DAA LEFFA Obs” value (LEFFA; 32 g ae/ha alone) of the same molecule?
A: Its value is 45%.

Q: And the “Visual Weed Control (%) - 22 DAA LEFPA Obs” value (LEFPA; 8 g ae/ha alone)?
A: The value was 5%.

Q: What about the “Visual Weed Control (%) - 22 DAA LEFPA Obs” value (LEFPA; 16 g ae/ha alone) of the same molecule?
A: The value was 0%.

Q: And the “Visual Weed Control (%) - 22 DAA LEFPA Obs” value (LEFPA; 32 g ae/ha alone)?
A: Its value is 38%.

Q: What about the “Visual Weed Control (%) - 20 DAA CYPES Obs” value (CYPES; 8 g ae/ha alone) of the same molecule?
A: Its value is 25%.

Q: What about the “Visual Weed Control (%) - 22 DAA CYPES Obs” value (CYPES; 8 g ae/ha alone) of the same molecule?
A: Its value is 70%.

Q: And the “Visual Weed Control (%) - 20 DAA CYPES Obs” value (CYPES; 16 g ae/ha alone)?
A: The value was 40%.

Q: And the “Visual Weed Control (%) - 22 DAA CYPES Obs” value (CYPES; 16 g ae/ha alone)?
A: The value was 95%.

Q: What about the “Visual Weed Control (%) - 22 DAA CYPES Obs” value (CYPES; 22 DAA, 8 g ae/ha alone) of the same molecule?
A: The value was 70%.

Q: And the “Visual Weed Control (%) - 20 DAA CYPES Obs” value (CYPES; 32 g ae/ha alone)?
A: Its value is 73%.

Q: And the “Visual Weed Control (%) - 22 DAA SCPJU Obs” value (SCPJU)?
A: The value was 70%.
